SMILES strings stand for the structures.

Results on 10 molecules are retold here after patent US6242461A, “Use of aryl substituted azabenzimidazoles in the treatment of HIV and AIDS related diseases” (Pfizer Inc., priority 2000, dated 2001).

The assay addresses HIV-1 RT (Human immunodeficiency virus type 1 group M subtype B, UniProt P04585). The assay can be described thus: HIV Reverse Transcriptase Assay (RNA-dependent DNA polymerase activity, 3H-dCTP incorporation). The assay is classed as biochemical. To be noted: 60 nM HIV-RT, tRNA-Lys3 primer/viral RNA template, 45 minutes, room temperature, 0.7% DMSO. The method, then:
Utilizing the Reverse Transcriptase (RT) Assay described below, compounds can be tested for their ability to inhibit the RNA-dependent DNA polymerase activity of HIV-1 RT. Compounds described in the Examples which appear below, were so tested.
HIV Reverse Transcriptase Assay:
HIV reverse transcriptase activity is assessed by following the incorporation of ^3 H-dCTP into newly synthesized DNA using the natural tRNA^Lys3 primer annealed to a viral RNA template sequence. Assays are performed in a final volume of 100 μL in 96-well plates. Briefly, assay buffer (50 mM Tris pH 7.5, 50 mM NaCl, 5 mM MgCl2), primer/template (10-60 nM), dNTPs (dATP, dGTP, dTTP; 100 nM each), and ^3 H-dCTP (180 nM) are combined, and the reaction is initiated with 60 nM HIV-RT. After 45 minutes at room temperature, the assay is quenched with 0.1 M EDTA and harvested onto a DEAE filter using a Skatron Harvester with a solution of 5% Na2 HPO4 -2% sodium pyrophosphate. The filter mats are dried and placed into a plastic bag with 10 ml of scintillant, and counted on a Wallac BetaPlate reader. Non-specific activity is determined by adding 0.1 M EDTA at the start of the assay.
To assess the activity of compounds on HIV-RT activity, compounds are added to the assay prior to addition of enzyme. Compounds are dissolved in 14% DMSO (0.7% final), and tested at 32, 10, 3.2, 1.0, 0.32, and 0.10 μM in triplicate. % Inhibition is calculated according to the following equation: […]
The molecule `Cc1nc2cnccc2n1-c1ccc(Cn2c(=O)sc3ccccc32)cc1` [Example 1, 3-[4-(2-Methyl-imidazo[4,5-c]pyridin-1-yl)-benzyl]-3H-benzothiazol-2-one] returned an inhibition at 10 µM of 78%.

As to `Cc1nc2cnccc2n1-c1ccc(Cn2c(=O)sc3cc(F)ccc32)cc1` [Example 2, 6-Fluoro-3-[4-(2-methyl-imidazo[4,5-c]pyridin-1-yl)-benzyl]-3H-benzothiazol-2-one], the inhibition at 10 µM was 76%.

As for `CCc1nc2cnccc2n1-c1ccc(Cn2c(=O)sc3ccccc32)cc1` [Example 3, 3-[4-(2-Ethyl-imidazo[4,5-c]pyridin-1-yl)-benzyl]-3H-benzothiazol-2-one], the inhibition at 10 µM is 72%.

Take `CC(C)c1nc2cnccc2n1-c1ccc(Cn2c(=O)sc3ccccc32)cc1` [Example 4, 3-[4-(2-lsopropyl-imidazo[4,5-c]pyridin-1-yl)-benzyl]-3H-benzothiazol-2-one]: the inhibition at 10 µM came to 23%.

Take `Cc1ccc2c(c1)sc(=O)n2Cc1ccc(-n2c(C)nc3cnccc32)cc1` [Example 5, 6-Methyl-3-[4-(2-methyl-imidazo[4,5-c]pyridin-1-yl)-benzyl]-3H-benzothiazol-2-one]: testing at 10 µM gave an inhibition of 30%.

`COc1ccc2c(c1)sc(=O)n2Cc1ccc(-n2c(C)nc3cnccc32)cc1` [Example 6, 6-Methoxy-3-[4-(2-methyl-imidazo[4,5-c]pyridin-1-yl)-benzyl]-3H-benzothiazol-2-one] gave an inhibition at 10 µM of 22%.

`Cc1nc2cnccc2n1-c1ccc(Cn2c(=O)sc3cc(Cl)ccc32)cc1` [Example 7, 6-Chloro-3-[4-(2-methyl-imidazo[4,5-c]pyridin-1-yl)-benzyl]-3H-benzothiazol-2-one] had an inhibition at 10 µM of 45%.

Turning to `COc1ccc2sc(=O)n(Cc3ccc(-n4c(C)nc5cnccc54)cc3)c2c1` [Example 8, 5-Methoxy-3-[4-(2-methyl-imidazo[4,5-c]pyridin-1-yl)-benzyl]-3H-benzothiazol-2-one], the inhibition at 10 µM stood at 41%.

`Cc1nc2cnccc2n1-c1ccc(Cn2c(=O)oc3ccccc32)cc1` [Example 13, 3-[4-(2-Methyl-imidazo[4,5-c]pyridin-1-yl)-benzyl]-3H-benzooxazol-2-one] yielded an inhibition at 10 µM of 61%.

Take `Cc1nc2ccccc2n1Cc1ccc(-n2c(C)nc3cnccc32)cc1` [Example 16, 2-Methyl-1-[4-(2-methyl-benzoimidazol-1-ylmethyl)-phenyl]1H-imidazo[4,5-c]pyridine]: at 10 µM the inhibition was 20%.

In general, inhibition refers to the drop in the measured response relative to a control, in per cent.
